According to patent publication US7632972B2, “Compounds and methods for treatment of cancer and modulation of programmed cell death for melanoma and other cancer cells” (The Board of Trustees of the University of Illionis, priority 2003, dated 2009):

How the values were obtained:
Format in all cases: cell-based, human
[1] = system: A549/ATCC; experiment: NCI 60 cell line screen (SRB), Non-Small Cell Lung Cancer
Text: (§1) The operation of this screen utilizes 60 different human tumor cell lines, representing leukemia, melanoma and cancers of the lung, colon, brain, ovary, breast, prostate, and kidney. The aim is to prioritize for further evaluation, synthetic compounds or natural product samples showing selective growth inhibition or cell killing of particular tumor cell lines. This screen is unique in that the complexity of a 60 cell line dose response produced by a given compound results in a biological response pattern which can be utilized in pattern recognition algorithms. Using these algorithms, it is possible to assign a putative mechanism of action to a test compound, or to determine that the response pattern is unique and not similar to that of any of the standard prototype compounds included in the NCl database (see DTP Overview tab). In addition, following characterization of various cellular molecular targets in the 60 cell lines, it may be possible to select compounds most likely to interact with a specific molecular target.
(§2) The human tumor cell lines of the cancer screening panel are grown in RPMI 1640 medium containing 5% fetal bovine serum and 2 mM L-glutamine. For a typical screening experiment, cells are inoculated into 96 well microtiter plates in 100 μL at plating densities ranging from 5,000 to 40,000 cells/well depending on the doubling time of individual cell lines. After cell inoculation, the microtiter plates are incubated at 37° C., 5% CO2, 95% air and 100% relative humidity for 24 h prior to addition of experimental drugs.
(§3) After 24 h, two plates of each cell line are fixed in situ with TCA, to represent a measurement of the cell population for each cell line at the time of drug addition (Tz). Experimental drugs are solubilized in dimethyl sulfoxide at 400-fold the desired final maximum test concentration and stored frozen prior to use. At the time of drug addition, an aliquot of frozen concentrate is thawed and diluted to twice the desired final maximum test concentration with complete medium containing 50 μg/ml gentamicin. Additional four, 10-fold or ½ log serial dilutions are made to provide a total of five drug concentrations plus control. Aliquots of 100 μl of these different drug dilutions are added to the appropriate microtiter wells already containing 100 μl of medium, resulting in the required final drug concentrations.
(§4) Following drug addition, the plates are incubated for an additional 48 h at 37° C., 5% CO2, 95% air, and 100% relative humidity. For adherent cells, the assay is terminated by the addition of cold TCA. Cells are fixed in situ by the gentle addition of 50 μl of cold 50% (w/v) TCA (final concentration, 10% TCA) and incubated for 60 minutes at 4° C. The supernatant is discarded, and the plates are washed five times with tap water and air dried. Sulforhodamine B (SRB) solution (100 μl) at 0.4% (w/v) in 1% acetic acid is added to each well, and plates are incubated for 10 minutes at room temperature. After staining, unbound dye is removed by washing five times with 1% acetic acid and the plates are air dried. Bound stain is subsequently solubilized with 10 mM trizma base, and the absorbance is read on an automated plate reader at a wavelength of 515 nm. For suspension cells, the methodology is the same except that the assay is terminated by fixing settled cells at the bottom of the wells by gently adding 50 μl of 80% TCA (final concentration, 16% TCA). Using the seven absorbance measurements [time zero, (Tz), control growth, (C), and test growth in the presence of drug at the five concentration levels (Ti)], the percentage growth is calculated at each of the drug concentrations levels. Percentage growth inhibition is calculated as: [(Ti−Tz)/(C−Tz)]×100 for concentrations for which Ti>/=Tz [(Ti−Tz)/Tz]×100 for concentrations for which Ti<Tz.
(§5) Three dose response parameters are calculated for each experimental agent. […]

[2] = system: EKVX; experiment: as above
Text: as §1, §2, §3, §4, §5

[3] = system: HOP-62; experiment: as above
Text: as §1, §2, §3, §4, §5

[4] = system: SF-295; experiment: NCI 60 cell line screen (SRB), CNS Cancer
Text: as §1, §2, §3, §4, §5

[5] = system: U251; experiment: NCI 60 cell line screen (SRB), CNS Cancer
Text: as §1, §2, §3, §4, §5

[6] = system: SK-MEL-28; experiment: NCI 60 cell line screen (SRB), Melanoma
Text: as §1, §2, §3, §4, §5

[7] = system: SK-MEL-2; experiment: NCI 60 cell line screen (SRB), Melanoma
Text: as §1, §2, §3, §4, §5

[8] = system: SK-MEL-5; experiment: NCI 60 cell line screen (SRB), Melanoma
Text: as §1, §2, §3, §4, §5

[9] = system: UACC-62; experiment: NCI 60 cell line screen (SRB), Melanoma
Text: as §1, §2, §3, §4, §5

[10] = read-out: LC50 (the source's name)

In the case of `COc1cccc(CCNC(=O)CC(c2ccccc2)(c2ccccc2)c2ccccc2)c1` [Compound Z3], the GI50 [1] is reported as 4.11 µM, the TGI [1] is reported as 9.65E−05 and the “Percent Growth” value ([1]; Log10 Concentration −5.0) is reported as 25%. The “Percent Growth” value ([1]; Log10 Concentration −6.0) was 89%, the “Percent Growth” value ([1]; Log10 Concentration −7.0) was 94% and the “Percent Growth” value ([1]; Log10 Concentration −8.0) was 102%. For the same molecule, the CC50 [1, 10] was > 100 µM, the GI50 [2] was 22.7 µM and the TGI [2] was >1.00E−04. The “Percent Growth” value ([2]; Log10 Concentration −4.0) was 29%, the “Percent Growth” value ([2]; Log10 Concentration −5.0) was 62% and the “Percent Growth” value ([2]; Log10 Concentration −6.0) was 109%. For the same molecule, the “Percent Growth” value ([2]; Log10 Concentration −7.0) was 121%, the “Percent Growth” value ([2]; Log10 Concentration −8.0) was 108% and the CC50 [2, 10] was > 100 µM. For the same molecule, the GI50 ([3]; HOP-62) was 59.4 µM, the TGI ([3]; HOP-62) was >1.00E−04 and the “Percent Growth” value ([3]; HOP-62, Log10 Concentration −4.0) was 40%. For the same molecule, the “Percent Growth” value ([3]; HOP-62, Log10 Concentration −5.0) was 83%, the “Percent Growth” value ([3]; HOP-62, Log10 Concentration −6.0) was 97% and the “Percent Growth” value ([3]; HOP-62, Log10 Concentration −7.0) was 105%. The “Percent Growth” value ([3]; HOP-62, Log10 Concentration −8.0) was 92%, the CC50 ([3]; HOP-62, read-out: LC50 (the source's name)) was > 100 µM and the GI50 ([4]; SF-295) was 4.36 µM. The TGI ([4]; SF-295) was >1.00E−04, the “Percent Growth” value ([4]; SF-295, Log10 Concentration −4.0) was 15% and the “Percent Growth” value ([4]; SF-295, Log10 Concentration −5.0) was 27%. For the same molecule, the “Percent Growth” value ([4]; SF-295, Log10 Concentration −6.0) was 91%, the “Percent Growth” value ([4]; SF-295, Log10 Concentration −7.0) was 113% and the “Percent Growth” value ([4]; SF-295, Log10 Concentration −8.0) was 100%. The CC50 ([4]; SF-295, read-out: LC50 (the source's name)) was > 100 µM, the GI50 ([5]; U251) was 4.85 µM and the TGI ([5]; U251) was 5.56E−05. The “Percent Growth” value ([5]; U251, Log10 Concentration −4.0) was −10%, the “Percent Growth” value ([5]; U251, Log10 Concentration −5.0) was 29% and the “Percent Growth” value ([5]; U251, Log10 Concentration −6.0) was 96%. The “Percent Growth” value ([5]; U251, Log10 Concentration −7.0) was 107%, the “Percent Growth” value ([5]; U251, Log10 Concentration −8.0) was 99% and the CC50 ([5]; U251, read-out: LC50 (the source's name)) was > 100 µM. For the same molecule, the GI50 ([6]; SK-MEL-28) was > 100 µM, the TGI ([6]; SK-MEL-28) was >1.00E−04 and the “Percent Growth” value ([6]; SK-MEL-28, Log10 Concentration −4.0) was 94%. The “Percent Growth” value ([6]; SK-MEL-28, Log10 Concentration −5.0) was 103%, the “Percent Growth” value ([6]; SK-MEL-28, Log10 Concentration −6.0) was 96% and the “Percent Growth” value ([6]; SK-MEL-28, Log10 Concentration −7.0) was 105%. For the same molecule, the “Percent Growth” value ([6]; SK-MEL-28, Log10 Concentration −8.0) was 84%, the CC50 ([6]; SK-MEL-28, read-out: LC50 (the source's name)) was > 100 µM and the GI50 ([7]; SK-MEL-2) was 4.41 µM. For the same molecule, the TGI ([7]; SK-MEL-2) was >1.00E−04, the “Percent Growth” value ([7]; SK-MEL-2, Log10 Concentration −4.0) was 18% and the “Percent Growth” value ([7]; SK-MEL-2, Log10 Concentration −5.0) was 24%. The “Percent Growth” value ([7]; SK-MEL-2, Log10 Concentration −6.0) was 97%, the “Percent Growth” value ([7]; SK-MEL-2, Log10 Concentration −7.0) was 85% and the “Percent Growth” value ([7]; SK-MEL-2, Log10 Concentration −8.0) was 80%. For the same molecule, the CC50 ([7]; SK-MEL-2, read-out: LC50 (the source's name)) was > 100 µM, the GI50 ([8]; SK-MEL-5) was 4.84 µM and the TGI ([8]; SK-MEL-5) was >1.00E−04. The “Percent Growth” value ([8]; SK-MEL-5, Log10 Concentration −4.0) was 15%, the “Percent Growth” value ([8]; SK-MEL-5, Log10 Concentration −5.0) was 21% and the “Percent Growth” value ([8]; SK-MEL-5, Log10 Concentration −6.0) was 113%. The “Percent Growth” value ([8]; SK-MEL-5, Log10 Concentration −7.0) was 112%, the “Percent Growth” value ([8]; SK-MEL-5, Log10 Concentration −8.0) was 80% and the CC50 ([8]; SK-MEL-5, read-out: LC50 (the source's name)) was > 100 µM. For the same molecule, the GI50 ([9]; UACC-62) was 0.613 µM, the TGI ([9]; UACC-62) was >1.00E−04 and the “Percent Growth” value ([9]; UACC-62, Log10 Concentration −4.0) was 22%. For the same molecule, the “Percent Growth” value ([9]; UACC-62, Log10 Concentration −5.0) was 14%, the “Percent Growth” value ([9]; UACC-62, Log10 Concentration −6.0) was 41% and the “Percent Growth” value ([9]; UACC-62, Log10 Concentration −7.0) was 83%. For the same molecule, the “Percent Growth” value ([9]; UACC-62, Log10 Concentration −8.0) was 94% and the CC50 ([9]; UACC-62, read-out: LC50 (the source's name)) was > 100 µM.
